In US20210315893A1 (Galapagos NV, priority 2017, published 2021) one finds EC50 data, which are given here for 15 compounds.

Assay [1] concerns the target T1, human GPCR sphingosine 1-phosphate receptor 5 (Homo sapiens, UniProt Q9H228).
T1 construct: host or cells: CHO
The assay is described as follows: S1PR5 selectivity Ca2+ flux assay (antagonist readout). Format: cell-based. To be noted: CHO cells overexpressing human S1PR5 and Gq, agonist at EC80 (20 nM), read-out: S1P5 EC50 (nM), S1P5 antagonist EC50. From the text: To evaluate the selectivity of the compounds for S1PR2 over S1PR1 and S1PR5, asimilar assay set upas described above for theS1PR2 calcium flux assays waspeformed: CHO cells stably overexpressing human GPCR sphingosine 1-phosphate receptor 1 and Gq protein (Euroscreen, FAST-0197A) or overexpressing human GPCR sphingosine 1-phosphate receptorS5 and Gq protein were used (Perkin Elmer, ES-593-A). In case of the S1PR5 assay triggering was done with an SPR5 specific agonist instead of with S1P (Hobson et al., 2015).
(§1) 50 μL of Chinese hamster ovary (CHO) cells stably overexpressing human S1PR1 or S1PR5 are seeded in 384 well sterile microplates (7,500 cells/well or 10,000 cells/well respectively) and are incubated overnight at 37° C. under 5% CO2. Cells are subsequently washed twice with 25 μL/well of starvation medium (F-12 Ham's medium containing 0.1% fatty acid free bovine serum albumin (FAF BSA)). After one h starvation at 37° C., 5% CO2, cells are loaded with 25 μL of Fluo 8 dye diluted in Hank's balanced salt solution (HBSS) with 20 mM Hepes complemented with 5 mM of probenecid following the recommendations of the manufacturer (one h at 37° C., 5% CO2). Dilution series of compounds are prepared in HBSS buffer with 20 mM Hepes and 0.1% BSA (FAF). 10 μL of diluted compound is added to the cells using the FDSS/pCELL and intracellular calcium changes are measured immediately by recording fluorescence during 3 min (agonist readout). The ratio of maximal signal over background before compound injection is used to determine compound response.
After an incubation of 15 min at 37° C., following the agonist readout, the plates are transferred to the FDSS/pCELL reader. Cells are stimulated with 10 μL of EC80 concentration of S1P (6 nM for S1P1 and 20 nM for S1P5) and intracellular calcium changes are measured immediately by recording fluorescence during three min (antagonist readout). The ratio of maximal signal over background before S1P injection was used to determine the inhibitory effect ofthe compound.
(§2) Raw data obtained in each experiment (ratio of maximal signal over background for calcium mobilization assays) were normalized in percentage of activation (agonist mode) or inhibition (antagonist mode) using positive and negative experiment controls. Each individual plate quality was assessed by evaluation of Z′ factor calculated with raw data using the following equation
(§3) Y=bottom+(top−bottom)/(1+(10^(Log IC50−X)*Hillslope)) where X is the logarithm of the concentration of the compound
On the technique in general: Calcium flux is commonly read through the fluorescence of an indicator in the cells.

Assay [2] concerns the target T2, human GPCR sphingosine 1-phosphate receptor 1 (Homo sapiens, UniProt P21453).
T2 construct: host or cells: CHO
The experiment in a line: S1PR1 selectivity Ca2+ flux assay (antagonist readout). Format: cell-based. Here is the method: as §1
After an incubation of 15 min at 37° C., following the agonist readout, the plates are transferred to the FDSS/pCELL reader. […] The ratio of maximal signal over background before S1P injection was used to determine the inhibitory effect ofthe compound.
as §2, §3

The target of the next assay is T3, S1PR2 (Homo sapiens, UniProt O95136).
T3 construct: expressed in transfected cells
The experiment in a line: S1PR2 binding assay (competition with radioactively labeled S1P, SpA). As to conditions: membranes from stable cell line over expressing S1PR2, SpA beads; read-out: S1P2 EC50 (nM), S1PR2 binding EC50. The method, boiled down:
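Scintillation proximity read-out after 2 h room-temperature incubation of compound, [3H]S1P and S1PR2-overexpressing cell membranes on WGA-coated beads. Buffer: 20 mM Tris pH 7.5, 100 mM NaCl, 10 mM MgCl2, 1 mM Na3VO4, 0.4% fatty-acid-free BSA; plates counted immediately after centrifugation.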

Assay [3] concerns HFL-1 cells. The assay is described as follows: IL8 assay in the presence of Human Serum Albumin. To be noted: HFL1, read-out: HSA IL8 EC50.
Method: To evaluate the influence of plasma protein binding of S1P as well as compound, the S1P induced IL-8 levelswereevaluatedin presence of Human Serum Albumin (HSA, equivalent to 40% human serum).
Human Fetal Lung cells (HFL-1) are seeded in 96 well plates in growth medium (F12K+10% heat inactivated FBS+1% Pen/strep). […] On day three, compounds are added (10 point serial dilution, 30 μM highest concentration, 1/3 dilution, 0.3% DMSO final) and plates are incubated for 1 h at 37° C., 5% CO2. Subsequently S1P at 5 μM final concentration is added and plates are incubated for 16 to 24 h at 37° C., 5% COafter which the supernatant was collected. IL-8 levels in the supernatant are determined with the IL-8 ELISA of R&D systems.
Assay [4] addresses T4, human GPCR sphingosine 1-phosphate receptor 2 (Homo sapiens, UniProt O95136).
T4 construct: host or cells: CHO
The assay is described as follows: S1PR2 antagonist Ca2+ flux assay. To be noted: antagonist mode, CHO-S1PR2 cells, S1P at EC80, Ca2+ fluorescence; read-out: S1P2 EC50 (nM), S1P2 antagonist EC50. In kind it is cell-based. The method, boiled down:
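Antagonist mode: 15 min after compound addition, S1P (EC80) stimulates Fluo8-loaded, 1 h-starved CHO-S1PR2 cells, Ca2+ read over 3 min; a prior 3-min read checks compound agonism. EC50 from peak/baseline fluorescence ratio, normalised versus vehicle and S1P EC50 (antagonist) or EC100 (agonist).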

For assay [5], the system named is HFL-1 cells. The experiment in a line: IL-8 production assay (S1P induced IL-8). In kind it is cell-based. To be noted: Homo sapiens, HFL1; S1P (1 μM) induced IL-8 in HFL-1 cells, starvation medium without HSA; read-out: IL8 EC50. The gist of the method:
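HFL-1 fibroblasts in low-serum medium were pretreated 1 h with a 10-point 1/3 series of compound starting at 30 μM (0.3% DMSO).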

The mark [6] stands for this setting: antagonist readout, CHO cells overexpressing human S1PR1 and Gq, S1P at EC80 (6 nM), read-out: S1P1 EC50 (nM), S1P1 antagonist EC50.

Molecules are shown by their SMILES. Where two headings read alike, the source gives them in different places.

T4 sequence (O95136 whole entry): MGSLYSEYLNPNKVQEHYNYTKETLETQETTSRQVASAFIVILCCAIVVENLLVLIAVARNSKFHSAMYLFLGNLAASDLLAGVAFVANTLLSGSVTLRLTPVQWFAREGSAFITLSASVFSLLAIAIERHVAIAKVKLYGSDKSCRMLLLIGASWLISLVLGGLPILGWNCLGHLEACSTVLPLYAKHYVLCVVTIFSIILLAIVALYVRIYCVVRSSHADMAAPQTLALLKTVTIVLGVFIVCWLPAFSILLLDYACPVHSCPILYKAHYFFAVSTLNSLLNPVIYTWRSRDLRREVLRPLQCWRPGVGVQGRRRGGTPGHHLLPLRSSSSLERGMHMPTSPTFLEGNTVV
T3 sequence (O95136 whole entry): as above
T1 sequence (Q9H228 whole entry): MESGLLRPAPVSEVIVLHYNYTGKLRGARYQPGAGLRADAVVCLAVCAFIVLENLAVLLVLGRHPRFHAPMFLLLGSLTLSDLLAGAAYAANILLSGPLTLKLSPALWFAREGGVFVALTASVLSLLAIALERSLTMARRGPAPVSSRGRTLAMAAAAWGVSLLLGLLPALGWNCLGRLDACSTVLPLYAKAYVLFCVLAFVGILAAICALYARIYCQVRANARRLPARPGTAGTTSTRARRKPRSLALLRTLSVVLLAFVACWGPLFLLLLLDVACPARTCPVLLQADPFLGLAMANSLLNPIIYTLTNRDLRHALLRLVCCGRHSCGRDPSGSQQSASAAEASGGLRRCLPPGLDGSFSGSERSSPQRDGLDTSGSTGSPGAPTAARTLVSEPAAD
T2 sequence (P21453 whole entry): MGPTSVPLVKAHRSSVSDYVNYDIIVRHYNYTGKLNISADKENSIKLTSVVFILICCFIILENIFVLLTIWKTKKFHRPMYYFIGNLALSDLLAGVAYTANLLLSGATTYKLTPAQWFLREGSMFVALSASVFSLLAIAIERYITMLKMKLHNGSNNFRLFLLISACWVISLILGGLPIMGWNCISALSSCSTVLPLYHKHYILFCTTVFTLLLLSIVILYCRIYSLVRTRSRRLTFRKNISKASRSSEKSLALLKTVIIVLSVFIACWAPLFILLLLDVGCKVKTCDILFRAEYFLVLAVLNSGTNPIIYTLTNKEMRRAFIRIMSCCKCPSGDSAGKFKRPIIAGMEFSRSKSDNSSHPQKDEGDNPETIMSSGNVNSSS

The EC50 is the midpoint of the concentration-response curve. `CC(C(=O)O)n1nc(Cn2cc3cc(OCC(F)F)c(Cl)cc3n2)c2ccccc2c1=O` (centres unmarked) [Compound 76]: the EC50 in assay [1] was 19800 nM; in assay [2], at least 19800 nM; at S1PR2, 317 nM; with HFL-1 cells [3], 3430 nM; in assay [4], 161 nM.

In the case of `CCOc1cc2nc(Cc3nn(CC(=O)O)c(=O)c4c(C)cccc34)[nH]c2cc1Cl` [Compound 77, 2-[4-[(6-chloro-5-ethoxy-1H-benzimidazol-2-yl)methyl]-8-methyl-1-oxo-phthalazin-2-yl]acetic acid], the 50% effective concentration (EC50) in assay [1] was found to be 6610 nM; at S1PR2, 241 nM; in the assay on HFL-1 cells [5], 1.63 nM; with HFL-1 cells [3], 27.4 nM; in assay [4], 29.8 nM.

Regarding `O=C(O)Cn1nc(Cc2cn3cc(OCC4CC4)c(Cl)cc3n2)c2ccccc2c1=O` [Compound 82, 2-[4-[[7-chloro-6-(cyclopropylmethoxy)imidazo[1,2-a]pyridin-2-yl]methyl]-1-oxo-phthalazin-2-yl]acetic acid], the EC50 in assay [1] was 4380 nM; in assay [2] (setting [6]) it was at least 19800 nM; in the assay with HFL-1 cells [5] it was 9.96 nM; in the assay with HFL-1 cells [3] it was 390 nM.

Take `CC(C(=O)O)n1nc(Cc2cn3cc(OCC4CC4)c(Cl)cc3n2)c2ccccc2c1=O` (centres unmarked) [Compound 83, 2-[4-[[7-chloro-6-(cyclopropylmethoxy)imidazo[1,2-a]pyridin-2-yl]methyl]-1-oxo-phthalazin-2-yl]propanoic acid]: the EC50 in assay [1] was 19800 nM; in assay [2] it was at least 19800 nM; at S1PR2, 53.2 nM; in the assay on HFL-1 cells [3] it was 125 nM; in assay [4], 12.7 nM.

Consider `CC(C(=O)O)n1nc(Cc2cn3cc(OCC4CC4)c(Cl)cc3n2)c2cc(F)ccc2c1=O` (centres unmarked) [Compound 86, 2-[4-[[7-chloro-6-(cyclopropylmethoxy)imidazo[1,2-a]pyridin-2-yl]methyl]-6-fluoro-1-oxo-phthalazin-2-yl]propanoic acid], for which the EC50 is 19800 nM in assay [1]; 28.7 nM on S1PR2; 0.911 nM in the assay on HFL-1 cells [5]; 97.1 nM in the assay on HFL-1 cells [3]; 6.33 nM in assay [4].

As for `O=C(O)Cc1nn(Cc2cn3cc(OCC4CC4)c(C(F)(F)F)cc3n2)c2ccccc2c1=O` [Compound 99, 2-[1-[[6-(cyclopropylmethoxy)-7-(trifluoromethyl)imidazo[1,2-a]pyridin-2-yl]methyl]-4-oxo-cinnolin-3-yl]acetic acid], the EC50 in assay [1] is 6610 nM; at S1PR2, 44.9 nM; in the assay on HFL-1 cells [3], 322 nM; in assay [4], 3.56 nM.

Take `CC(C(=O)O)c1nn(Cc2cn3cc(OCC4CC4)c(C(F)(F)F)cc3n2)c2ccccc2c1=O` (centres unmarked) [Compound 100, 2-[1-[[6-(cyclopropylmethoxy)-7-(trifluoromethyl)imidazo[1,2-a]pyridin-2-yl]methyl]-4-oxo-cinnolin-3-yl]propanoic acid]: the EC50 in assay [1] came out at 19800 nM; on S1PR2, 51.1 nM; in the assay with HFL-1 cells [5] it was 4.97 nM; with HFL-1 cells [3], 63.5 nM; in assay [4], 3.45 nM.

As for `Cc1cccc2c1c(=O)c(CC(=O)O)nn2Cc1cn2cc(OCC3CC3)c(Cl)cc2n1` [Compound 102, 2-[1-[[7-chloro-6-(cyclopropylmethoxy)imidazo[1,2-a]pyridin-2-yl]methyl]-5-methyl-4-oxo-cinnolin-3-yl]acetic acid], the EC50 in assay [1] was 19800 nM; in assay [2] (setting [6]), at least 19800 nM; on S1PR2 it was 30 nM; in the assay with HFL-1 cells [3] it was 18 nM; in assay [4] it was 3.02 nM.

As to `N#Cc1cc2nc(Cn3nc(C(=O)O)c(=O)c4ccccc43)[nH]c2cc1OCC1CC1` [Compound 110, 1-[[5-cyano-6-(cyclopropylmethoxy)-1H-benzimidazol-2-yl]methyl]-4-oxo-cinnoline-3-carboxylic acid], the EC50 came out at 2240 nM in assay [1]; 11.2 nM on S1PR2; 2.37 nM with HFL-1 cells [5]; 15.2 nM in the assay on HFL-1 cells [3]; 2.17 nM in assay [4].

For `O=C(O)Cn1nc(Cn2cc3cc(OCC4CC4)c(Br)cc3n2)c2ccccc2c1=O` [Compound 111, 2-[4-[[6-bromo-5-(cyclopropylmethoxy)indazol-2-yl]methyl]-1-oxo-phthalazin-2-yl]acetic acid], the EC50 in assay [1] is 10000 nM; on S1PR2, 49 nM; in the assay on HFL-1 cells [5] it was 42.2 nM; with HFL-1 cells [3], 1080 nM; in assay [4] it was 15.2 nM.

In the case of `O=C(Cn1nc(Cc2nc3cc(Cl)c(OCC4CC4)cc3[nH]2)c2ccccc2c1=O)NC1CCCC1` [Compound 150, 2-[4-[[5-chloro-6-(cyclopropylmethoxy)-1H-benzimidazol-2-yl]methyl]-1-oxo-phthalazin-2-yl]-N-cyclopentyl-acetamide], the EC50 in assay [1] stood at 19800 nM; at S1PR2, 15.6 nM; in the assay on HFL-1 cells [5], 6.14 nM; with HFL-1 cells [3], 41.4 nM; in assay [4], 13.7 nM.

Turning to `O=C(O)Cn1nc(Cc2nc3nc(OCC4CC4)c(Cl)cc3[nH]2)c2ccccc2c1=O` [Compound 257, 2-[4-[[6-chloro-5-(cyclopropylmethoxy)-1H-imidazo[4,5-b]pyridin-2-yl]methyl]-1-oxo-phthalazin-2-yl]acetic acid], the EC50 stood at 19800 nM in assay [1]; 231 nM on S1PR2; 53.9 nM with HFL-1 cells [5]; 216 nM with HFL-1 cells [3]; 24.3 nM in assay [4].

As for `CC(C(=O)O)n1nc(Cn2cc3cc(OCC4CC4)c(Cl)cc3n2)c2ccccc2c1=O` (centres unmarked) [compound 3, 2-[4-[[6-chloro-5-(cyclopropyl-methoxy)indazol-2-yl]methyl]-1-oxo-phthalazin-2-yl]propanoic acid], the EC50 in assay [1] amounted to 19800 nM; in the assay with HFL-1 cells [5], 3.99 nM; in the assay on HFL-1 cells [3], 217 nM.

Turning to `O=C(O)c1nn(Cc2nc3cc(OCC4CC4)c(Cl)cc3[nH]2)c2ccccc2c1=O` [compound 5, 1-[[6-chloro-5-(cyclopropyl-methoxy)-1H-benzimidazol-2-yl]methyl]-4-oxo-cinnoline-3-carboxylic acid], the EC50 in assay [1] was determined as 1620 nM; on S1PR2 it was 22 nM; in the assay with HFL-1 cells [5], 1.52 nM; in the assay with HFL-1 cells [3], 17.5 nM; in assay [4] it was 3.48 nM.

Regarding `CN(C)CC(C(=O)O)c1nn(Cc2nc3cc(C#N)c(OCC4CC4)cc3[nH]2)c2ccccc2c1=O` (centres unmarked) [compound 21, (2-[1-[[5-cyano-6-(cyclopropyl-methoxy)-1H-benzimidazol-2-yl]methyl]-4-oxocinnolin-3-yl]-3-(dimethyl-amino)propanoic acid)], the EC50 in assay [1] turned out to be 19800 nM; on S1PR2, 30.4 nM; in the assay with HFL-1 cells [5], 2.52 nM; in the assay with HFL-1 cells [3], 52.1 nM; in assay [4], 5.4 nM.
